The target in assay [1] is T1, Megakaryocyte-associated tyrosine-protein kinase (Homo sapiens) (UniProt P42679).
T1 sequence (whole entry): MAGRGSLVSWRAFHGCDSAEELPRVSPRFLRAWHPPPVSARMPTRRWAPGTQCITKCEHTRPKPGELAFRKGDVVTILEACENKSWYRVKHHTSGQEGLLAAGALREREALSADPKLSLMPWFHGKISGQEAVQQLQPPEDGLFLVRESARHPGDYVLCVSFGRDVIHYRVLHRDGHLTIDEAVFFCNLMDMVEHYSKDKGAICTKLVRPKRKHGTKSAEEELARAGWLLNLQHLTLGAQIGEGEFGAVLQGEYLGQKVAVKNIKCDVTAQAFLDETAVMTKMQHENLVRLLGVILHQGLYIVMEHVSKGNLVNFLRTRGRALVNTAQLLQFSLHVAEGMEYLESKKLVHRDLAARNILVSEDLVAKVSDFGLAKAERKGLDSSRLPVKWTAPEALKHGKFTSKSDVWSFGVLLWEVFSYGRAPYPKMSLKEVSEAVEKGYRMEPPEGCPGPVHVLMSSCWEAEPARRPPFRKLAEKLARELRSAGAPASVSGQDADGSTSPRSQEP
The conditions noted are these: Compound concentration 1000.0 nM.

Assay [2] deals with Serine/threonine-protein kinase tousled-like 2 (Homo sapiens) (UniProt Q86UE8). Conditions: Compound concentration 1000.0 nM.
Serine/threonine-protein kinase tousled-like 2 (Homo sapiens), sequence (Q86UE8 whole entry, looked up): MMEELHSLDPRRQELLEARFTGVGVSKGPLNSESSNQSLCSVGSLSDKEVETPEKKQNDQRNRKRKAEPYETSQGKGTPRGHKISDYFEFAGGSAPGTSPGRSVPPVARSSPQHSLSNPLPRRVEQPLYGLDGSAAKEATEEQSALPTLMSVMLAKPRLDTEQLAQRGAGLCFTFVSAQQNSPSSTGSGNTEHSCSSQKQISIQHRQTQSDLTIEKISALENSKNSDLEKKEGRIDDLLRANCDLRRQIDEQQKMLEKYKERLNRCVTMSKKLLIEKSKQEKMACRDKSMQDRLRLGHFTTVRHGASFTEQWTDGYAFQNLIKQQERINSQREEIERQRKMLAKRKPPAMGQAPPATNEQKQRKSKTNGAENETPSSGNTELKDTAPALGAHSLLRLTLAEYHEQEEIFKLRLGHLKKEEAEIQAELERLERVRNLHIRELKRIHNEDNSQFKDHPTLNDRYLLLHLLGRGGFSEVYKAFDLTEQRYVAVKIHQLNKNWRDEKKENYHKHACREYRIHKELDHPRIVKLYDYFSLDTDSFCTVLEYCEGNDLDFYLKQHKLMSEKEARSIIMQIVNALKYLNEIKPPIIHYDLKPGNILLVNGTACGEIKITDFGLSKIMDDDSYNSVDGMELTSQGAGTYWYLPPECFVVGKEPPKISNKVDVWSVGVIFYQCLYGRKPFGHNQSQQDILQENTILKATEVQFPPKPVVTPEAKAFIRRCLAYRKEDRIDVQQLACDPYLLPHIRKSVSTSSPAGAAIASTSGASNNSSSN
Assay [3] addresses Interferon-induced, double-stranded RNA-activated protein kinase (Homo sapiens) (UniProt P19525). Conditions: Compound concentration 1000.0 nM.
The target in assay [4] is T2, MAP/microtubule affinity-regulating kinase 4 (Homo sapiens) (UniProt Q96L34).
T2 sequence (whole entry): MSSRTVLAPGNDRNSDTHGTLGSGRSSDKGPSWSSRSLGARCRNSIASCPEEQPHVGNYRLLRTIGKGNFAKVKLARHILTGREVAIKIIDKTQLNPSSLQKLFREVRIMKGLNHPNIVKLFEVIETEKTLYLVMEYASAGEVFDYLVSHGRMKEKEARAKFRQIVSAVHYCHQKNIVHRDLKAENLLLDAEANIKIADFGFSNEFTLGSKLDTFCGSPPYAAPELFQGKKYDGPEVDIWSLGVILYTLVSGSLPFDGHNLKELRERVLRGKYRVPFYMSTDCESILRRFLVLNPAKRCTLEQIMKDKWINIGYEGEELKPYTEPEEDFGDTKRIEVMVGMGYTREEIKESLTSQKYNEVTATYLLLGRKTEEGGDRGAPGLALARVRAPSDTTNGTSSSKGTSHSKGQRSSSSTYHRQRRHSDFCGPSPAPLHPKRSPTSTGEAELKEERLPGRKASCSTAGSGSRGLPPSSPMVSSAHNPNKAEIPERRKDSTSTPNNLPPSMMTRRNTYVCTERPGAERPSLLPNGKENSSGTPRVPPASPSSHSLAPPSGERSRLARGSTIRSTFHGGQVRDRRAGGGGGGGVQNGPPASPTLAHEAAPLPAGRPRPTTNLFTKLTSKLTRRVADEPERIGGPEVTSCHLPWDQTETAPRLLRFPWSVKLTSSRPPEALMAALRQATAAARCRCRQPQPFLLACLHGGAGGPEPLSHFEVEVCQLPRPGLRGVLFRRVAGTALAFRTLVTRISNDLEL
The conditions noted are these: Compound concentration 1000.0 nM.

Assay [5] has as its system Epidermal growth factor receptor (Homo sapiens), P00533 [UNDEFINED MUTATION]. The conditions noted are these: Compound concentration 1000.0 nM.
The target of assay [6] is RAC-beta serine/threonine-protein kinase (Homo sapiens) (UniProt P31751). The conditions noted are these: Compound concentration 1000.0 nM.
For assay [7], the target named is Cyclin-dependent kinase-like 5 (Homo sapiens) (UniProt O76039). Conditions: Compound concentration 1000.0 nM.
Cyclin-dependent kinase-like 5 (Homo sapiens), sequence (O76039 whole entry): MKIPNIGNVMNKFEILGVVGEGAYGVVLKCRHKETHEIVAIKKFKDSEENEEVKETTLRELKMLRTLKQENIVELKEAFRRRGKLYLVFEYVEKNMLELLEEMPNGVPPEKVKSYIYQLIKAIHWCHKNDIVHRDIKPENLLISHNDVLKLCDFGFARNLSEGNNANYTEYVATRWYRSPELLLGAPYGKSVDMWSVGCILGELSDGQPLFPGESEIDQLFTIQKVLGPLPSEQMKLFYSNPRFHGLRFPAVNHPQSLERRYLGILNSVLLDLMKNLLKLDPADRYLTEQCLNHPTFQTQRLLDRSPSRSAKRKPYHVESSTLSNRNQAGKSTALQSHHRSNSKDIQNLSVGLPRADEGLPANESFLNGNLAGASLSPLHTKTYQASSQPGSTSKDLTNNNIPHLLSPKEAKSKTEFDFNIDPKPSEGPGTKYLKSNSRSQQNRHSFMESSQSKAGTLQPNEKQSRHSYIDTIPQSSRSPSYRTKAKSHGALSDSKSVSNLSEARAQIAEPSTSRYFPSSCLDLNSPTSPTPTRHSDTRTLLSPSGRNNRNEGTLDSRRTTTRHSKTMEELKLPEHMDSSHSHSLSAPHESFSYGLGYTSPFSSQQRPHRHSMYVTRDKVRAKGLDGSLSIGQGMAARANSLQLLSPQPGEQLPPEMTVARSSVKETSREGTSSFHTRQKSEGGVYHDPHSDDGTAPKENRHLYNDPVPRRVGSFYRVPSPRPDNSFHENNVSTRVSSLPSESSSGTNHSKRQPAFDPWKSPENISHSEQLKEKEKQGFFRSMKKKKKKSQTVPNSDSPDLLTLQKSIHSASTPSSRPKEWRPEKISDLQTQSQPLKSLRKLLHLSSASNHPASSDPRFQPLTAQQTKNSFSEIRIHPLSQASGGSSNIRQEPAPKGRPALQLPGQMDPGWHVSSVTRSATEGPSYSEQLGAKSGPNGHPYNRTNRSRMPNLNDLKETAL
Assay [8] addresses T3, Aurora kinase A (Homo sapiens) (UniProt O14965).
T3 sequence (whole entry): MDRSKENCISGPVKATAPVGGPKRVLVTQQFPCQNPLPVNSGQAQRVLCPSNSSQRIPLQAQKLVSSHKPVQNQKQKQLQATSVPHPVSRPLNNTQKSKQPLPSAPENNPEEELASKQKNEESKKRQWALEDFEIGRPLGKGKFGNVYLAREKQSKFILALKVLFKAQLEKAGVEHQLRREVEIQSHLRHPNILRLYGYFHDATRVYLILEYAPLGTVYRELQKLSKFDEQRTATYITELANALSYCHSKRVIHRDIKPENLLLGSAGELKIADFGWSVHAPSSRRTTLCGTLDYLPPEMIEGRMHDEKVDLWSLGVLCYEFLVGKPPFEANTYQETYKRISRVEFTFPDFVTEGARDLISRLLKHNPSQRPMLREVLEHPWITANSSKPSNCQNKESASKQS
Conditions: Compound concentration 1000.0 nM.

In assay [9] the target is T4, 5-hydroxytryptamine receptor 1A (Homo sapiens) (UniProt P08908).
T4 sequence (whole entry): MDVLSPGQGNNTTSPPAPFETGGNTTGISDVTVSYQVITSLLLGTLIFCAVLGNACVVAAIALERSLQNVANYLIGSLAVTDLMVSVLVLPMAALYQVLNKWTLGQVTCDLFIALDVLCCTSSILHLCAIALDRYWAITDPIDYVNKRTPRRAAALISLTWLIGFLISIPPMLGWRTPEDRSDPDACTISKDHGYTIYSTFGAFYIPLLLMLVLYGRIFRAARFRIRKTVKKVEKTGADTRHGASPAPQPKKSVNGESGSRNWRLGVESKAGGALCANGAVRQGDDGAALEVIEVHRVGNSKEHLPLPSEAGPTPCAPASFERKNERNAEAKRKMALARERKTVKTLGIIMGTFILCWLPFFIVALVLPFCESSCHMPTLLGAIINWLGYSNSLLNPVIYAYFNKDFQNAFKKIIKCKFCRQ
Conditions: Compound concentration 10.0 uM.

The target of assay [10] is Phosphatidylinositol 5-phosphate 4-kinase type-2 beta (Homo sapiens) (UniProt P78356). Conditions: Compound concentration 1000.0 nM.
In assay [11] the target is Serine/threonine-protein kinase tousled-like 1 (Homo sapiens) (UniProt Q9UKI8). The conditions noted are these: Compound concentration 1000.0 nM.
Serine/threonine-protein kinase tousled-like 1 (Homo sapiens), sequence (Q9UKI8 whole entry): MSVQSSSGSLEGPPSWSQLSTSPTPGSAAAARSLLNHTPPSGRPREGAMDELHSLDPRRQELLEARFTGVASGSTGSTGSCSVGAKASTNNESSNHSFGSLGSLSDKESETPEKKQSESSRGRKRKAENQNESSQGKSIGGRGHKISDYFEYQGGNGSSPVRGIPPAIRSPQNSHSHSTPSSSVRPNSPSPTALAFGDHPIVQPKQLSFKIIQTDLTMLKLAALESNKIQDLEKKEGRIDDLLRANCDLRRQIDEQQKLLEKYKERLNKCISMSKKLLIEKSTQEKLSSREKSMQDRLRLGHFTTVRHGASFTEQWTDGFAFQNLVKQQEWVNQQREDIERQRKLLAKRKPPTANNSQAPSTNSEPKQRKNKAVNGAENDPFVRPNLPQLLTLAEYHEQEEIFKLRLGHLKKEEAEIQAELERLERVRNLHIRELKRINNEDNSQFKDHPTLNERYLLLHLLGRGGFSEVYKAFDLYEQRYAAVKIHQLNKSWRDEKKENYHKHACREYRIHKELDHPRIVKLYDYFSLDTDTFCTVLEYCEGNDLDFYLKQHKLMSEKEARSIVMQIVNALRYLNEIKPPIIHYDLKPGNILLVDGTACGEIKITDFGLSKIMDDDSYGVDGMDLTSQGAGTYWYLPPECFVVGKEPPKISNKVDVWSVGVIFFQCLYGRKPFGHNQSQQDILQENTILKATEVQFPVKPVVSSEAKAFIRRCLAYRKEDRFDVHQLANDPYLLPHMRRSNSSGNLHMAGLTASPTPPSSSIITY
Assay [12] deals with Epidermal growth factor receptor (Homo sapiens), P00533 [UNDEFINED MUTATION]. Conditions: Compound concentration 1000.0 nM. This is another data set of the same source.
The target of assay [13] is Receptor-interacting serine/threonine-protein kinase 4 (Homo sapiens) (UniProt P57078). Conditions: Compound concentration 1000.0 nM.
Receptor-interacting serine/threonine-protein kinase 4 (Homo sapiens), sequence (P57078 whole entry): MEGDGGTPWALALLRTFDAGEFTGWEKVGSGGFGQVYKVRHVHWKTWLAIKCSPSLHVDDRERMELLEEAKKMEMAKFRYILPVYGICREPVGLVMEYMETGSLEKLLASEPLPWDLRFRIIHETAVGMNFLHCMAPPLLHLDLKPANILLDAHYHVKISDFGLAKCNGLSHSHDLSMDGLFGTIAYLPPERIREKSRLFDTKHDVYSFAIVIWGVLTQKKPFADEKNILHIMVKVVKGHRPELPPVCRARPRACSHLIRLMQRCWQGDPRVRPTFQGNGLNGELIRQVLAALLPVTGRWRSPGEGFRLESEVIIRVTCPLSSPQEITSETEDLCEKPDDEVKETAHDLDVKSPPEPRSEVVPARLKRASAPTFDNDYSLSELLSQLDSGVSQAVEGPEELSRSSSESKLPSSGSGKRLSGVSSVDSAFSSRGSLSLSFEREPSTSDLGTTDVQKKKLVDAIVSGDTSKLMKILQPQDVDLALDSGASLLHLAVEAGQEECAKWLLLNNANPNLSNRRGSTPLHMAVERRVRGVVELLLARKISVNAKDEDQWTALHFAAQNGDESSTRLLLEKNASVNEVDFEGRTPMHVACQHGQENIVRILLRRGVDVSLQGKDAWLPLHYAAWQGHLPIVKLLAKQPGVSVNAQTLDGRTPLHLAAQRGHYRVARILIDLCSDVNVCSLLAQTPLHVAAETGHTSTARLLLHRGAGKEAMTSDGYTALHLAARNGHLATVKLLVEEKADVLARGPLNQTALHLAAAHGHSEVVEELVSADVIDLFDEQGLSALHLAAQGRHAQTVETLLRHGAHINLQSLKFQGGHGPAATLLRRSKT
Assay [14] has as its system Tyrosine-protein kinase ABL1 (Homo sapiens), P00519 [Q252H]. The conditions noted are these: Compound concentration 1000.0 nM.
Assay [15] deals with Serine/threonine-protein kinase LATS2 (Homo sapiens) (UniProt Q9NRM7). Conditions: Compound concentration 1000.0 nM.
Serine/threonine-protein kinase LATS2 (Homo sapiens), sequence (Q9NRM7 whole entry): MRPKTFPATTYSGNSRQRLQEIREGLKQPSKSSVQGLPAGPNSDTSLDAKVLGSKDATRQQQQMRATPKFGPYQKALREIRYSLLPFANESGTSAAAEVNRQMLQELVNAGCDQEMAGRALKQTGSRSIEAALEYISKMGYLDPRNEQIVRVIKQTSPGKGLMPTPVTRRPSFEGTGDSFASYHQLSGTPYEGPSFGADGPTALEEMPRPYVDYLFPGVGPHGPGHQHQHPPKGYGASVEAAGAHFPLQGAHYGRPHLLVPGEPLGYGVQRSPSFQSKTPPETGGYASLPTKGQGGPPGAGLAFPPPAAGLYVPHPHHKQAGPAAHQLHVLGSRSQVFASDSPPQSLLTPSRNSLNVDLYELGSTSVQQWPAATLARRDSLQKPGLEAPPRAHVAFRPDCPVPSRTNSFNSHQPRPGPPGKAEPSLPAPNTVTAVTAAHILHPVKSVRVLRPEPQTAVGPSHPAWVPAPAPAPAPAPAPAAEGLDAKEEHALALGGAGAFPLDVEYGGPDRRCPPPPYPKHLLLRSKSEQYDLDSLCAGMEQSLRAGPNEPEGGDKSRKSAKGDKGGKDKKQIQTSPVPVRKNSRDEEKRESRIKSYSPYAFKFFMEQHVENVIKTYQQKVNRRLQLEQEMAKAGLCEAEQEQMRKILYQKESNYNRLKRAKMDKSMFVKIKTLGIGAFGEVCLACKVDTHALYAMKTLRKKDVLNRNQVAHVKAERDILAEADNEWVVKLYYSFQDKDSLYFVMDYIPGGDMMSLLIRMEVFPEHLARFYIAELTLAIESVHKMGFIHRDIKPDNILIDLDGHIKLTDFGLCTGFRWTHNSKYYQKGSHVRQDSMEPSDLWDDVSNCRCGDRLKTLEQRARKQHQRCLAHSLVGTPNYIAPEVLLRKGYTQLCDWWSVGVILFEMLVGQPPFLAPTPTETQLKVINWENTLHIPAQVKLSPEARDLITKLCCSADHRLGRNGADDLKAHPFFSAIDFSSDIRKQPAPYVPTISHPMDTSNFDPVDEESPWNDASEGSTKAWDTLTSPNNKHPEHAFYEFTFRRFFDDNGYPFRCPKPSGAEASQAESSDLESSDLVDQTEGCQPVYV
In assay [16] the test system is Epidermal growth factor receptor (Homo sapiens), P00533 [L861Q]. The conditions noted are these: Compound concentration 1000.0 nM.

The text below walks through data of ChEMBL document CHEMBL4507276 (2021).

Interferon-induced, double-stranded RNA-activated protein kinase (Homo sapiens), sequence (P19525 whole entry): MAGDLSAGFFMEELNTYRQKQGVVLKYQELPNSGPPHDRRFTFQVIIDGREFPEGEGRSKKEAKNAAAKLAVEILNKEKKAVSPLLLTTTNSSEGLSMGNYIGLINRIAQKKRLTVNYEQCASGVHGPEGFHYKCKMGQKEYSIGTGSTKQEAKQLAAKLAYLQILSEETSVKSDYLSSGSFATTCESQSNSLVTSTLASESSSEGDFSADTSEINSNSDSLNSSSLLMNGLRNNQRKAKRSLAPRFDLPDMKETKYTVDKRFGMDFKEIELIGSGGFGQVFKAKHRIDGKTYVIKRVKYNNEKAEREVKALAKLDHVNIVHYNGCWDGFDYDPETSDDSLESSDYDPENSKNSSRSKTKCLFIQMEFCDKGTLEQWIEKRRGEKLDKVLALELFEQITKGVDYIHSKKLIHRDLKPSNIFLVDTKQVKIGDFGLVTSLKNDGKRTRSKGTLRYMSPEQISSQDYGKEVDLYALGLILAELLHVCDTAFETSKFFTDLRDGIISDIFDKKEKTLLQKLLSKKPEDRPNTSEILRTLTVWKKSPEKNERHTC

As to `CN(C)C(=O)Cn1cc(-c2nc(C3(c4ccc(-c5cnc(N)nc5)cc4)CC3)no2)cn1` [BI 0153], the residual activity in [1] is 77%; in assay [2], 100%; in assay [3], 100%; in assay [4], 96%; in assay [5], 80%; in [6], 100%. The residual activity in assay [7] was 82%; in [8], 82%; in [10], 71%; in assay [11] it was 100%; in assay [12], 100%; in assay [13] it was 70%. Besides, the residual activity in assay [14] was 100%; in assay [15] it was 46%; in assay [16], 100%. Moreover, the inhibition in assay [9] was 31.5%.

As for `CN(C)C(=O)Cn1cc(-c2nc([C@@](C)(c3ccc(-c4cnc(N)nc4)cc3)C3CC3)no2)cn1` [BI 665915], the residual activity in assay [1] was 77%; in assay [2], 100%; in assay [3], 100%; in assay [4], 95%; in assay [5] it was 100%; in assay [6], 84%. In addition, the residual activity was 89% in assay [7]; 73% in assay [8]; 100% in [10]; 100% in assay [11]; 100% in assay [12]; 93% in assay [13]. Further, the residual activity in assay [14] is 83%; in assay [15] it was 74%; in assay [16], 100%. Further, in assay [9], the inhibition is 6.78%.

By inhibition is commonly meant the relative decrease from the control value, in per cent.
